Data set [1] concerns WCRW larvae. The data set can be described thus: Residual activity of treated soil maintained outdoors, water pH 6, 7, 8 (Example 4). The format is in vivo, Diabrotica virgifera virgifera. On the procedure: A solution of the Test Formula A was prepared by making dilutions in water to form a solution. Dry, Midwestern soil was brought up to 15% moisture with treatment solutions (Table 5). Buckets of treated soil were carted outside daily between Monday and Friday and exposed to direct sunlight. Carts were not wheeled out on days that forecasted precipitation. At the end of each day, soil buckets were brought back into the laboratory, weighed, the appropriate amount of water added to the soil to bring it back up to 15% moisture, and covered overnight; daily records of weights and amount of water added to each bucket was recorded.
At 30DAT, 42DAT, 57DAT, and 85DAT, […] WCRW larvae were infested into treated soil containing and germinating corn seed and evaluated 6 days after infestation (6DAI) for percent control and larval stunting. There were 6 replicates per infestation date with 5 larvae per replicate (n=30). Treatments applied to dry Midwestern soil for assessment of residual WCRW included Test Formula at 67, 267, and 1,069 ppm, Capture LFR at 1988.5 and 3,977 ppm.

The subject of data set [2] is 2nd instar WCRW. The data set can be described thus: Residual activity of treated Midwestern soil kept in lab at 15% moisture (Example 5). The format is in vivo, Diabrotica virgifera virgifera. On the procedure:
In order to induce seed germination prior to test initiation, corn seed was submerged in water for 12 h and then placed between layers of moistened paper towel for 72 h. Plastic Dart® containers (1 oz/30 ml) were utilized for the assay. Treatments included tetraniliprole Test Formula according to the present invention, Capture LFR® (bifenthrin), and Rugby® (cadusafos). A 60 g ai/ha foliar rate applied at a volume of 30GPA equates to 213.8 ppm. If this application rate was condensed into a 6″ T-band application that assumed a 30″ row spacing, the ppm rate would increase to 1069 ppm (213.8 ppm×5). Five rates were selected for the experimental treatment (Test Formula) and compared to a single rate of two standard treatments (Capture LFR and Rugby). Treatment solutions (Table 4) were mixed into dry, sifted, Midwestern soil, from Wyoming, Illinois, by adding 300mLs of solution into 2000 g of soil and equates to approximate 15% soil moisture value; soil clumped when pinched.
An estimated 0.75 cm of treated soil was placed into the bottom of each container, one germinated corn seed was placed onto the soil, and then the arenas were capped with a lid until rootworms were infested. Corn was covered with approximately 1.75 cm of treated soil. Using a fine tipped paint brush, 5 WCRW larvae (2nd instar) were transferred onto the soil of each replicate and then capped. There were 8 replicates and 40 larvae per treatment. Arenas containing soil, corn, and larvae were transferred into the Insectary room (≈23° C., 0 L:24D) and evaluated 6 days later for the presence of living larvae. Larvae not recovered within each arena were considered dead. Additional treated soil was maintained within a 5 gallon bucket, covered with aluminum […], and weights recorded. Additional water was added every Monday in order to maintain a 15% soil moisture level.
All mortality data was analyzed by ANOVA/GLM with an alpha of 0.1 (Minitab 16.0).

One substance from patent US11793199B2, “Formulations and methods for controlling rootworm larvae” (FMC Corporation, priority 2016, dated 2023) can be followed below.

With tetraniliprole, the “control to WCRW larvae” value in data set [1] (67 ppm (3.75 g ai/ha), soil kept outdoors, water pH 6, 7 or 8) was at least 87%. For the same substance, the “state of surviving larvae compared to the non-treated check” value in data set [1] (67 ppm, 57 DAT and 85 DAT) is listed as “severely stunted”. In data set [2] (3.75 g ai/ha, 0 DAT), the size of larvae entry is given as “approximately half the size as the untreated check”. In data set [2] (15, 30, 60 g ai/ha, lab soil at 15% moisture), the “control to 2nd instar WCRW larvae at 64DAT” value was at least 95%. Moreover, in data set [2] (all treated soils, 0 DAT), the “larval stunting compared to the untreated check” value was “Stunted larvae were detected”. In addition, in data set [2] (all treated soils, 0 DAT), the “protection to the root and shoot system of corn” value is listed as “evident”. Also, the “2nd instar WCRW: % Mortality 0DAT” value in data set [2] (lab soil 15% moisture, 66.8 ppm (3.75 g ai/ha in-furrow), after 144 h within treated soil) is recorded as below 80%; in data set [2] (lab soil 15% moisture, 133.6 ppm (7.5 g ai/ha in-furrow), after 144 h within treated soil), below 80%; in data set [2] (lab soil, 534.5 ppm (30 g ai/ha in-furrow), after 144 h) it was 97.5%; in data set [2] (lab soil, 1069 ppm (60 g ai/ha in-furrow), after 144 h), 97.5%.
